Data from ChEMBL document CHEMBL1201862, “PubChem BioAssay data set” (2004).
The source made the active and inactive calls.

Columns and labels:
[1] = target: T1, Runt-related transcription factor 1/Core-binding factor subunit beta (Homo sapiens, UniProt Q01196+Q13951); assay: disruptors of Runt domain/CBFb-SMMHC interaction – biochemical, FRET, Cerulean-Runt, Venus-CBFb-SMMHC, uHTS, […] (AID 1434); assay type: protein assay
[2] = target: T2, Aminopeptidase N (Plasmodium falciparum FcB1/Columbia, UniProt O96935); assay: malaria alanyl aminopeptidase activity blockers – biochemical, fluorogenic H-Leu-NHMec substrate, 1536-well (AID 1445); design: species or system Plasmodium falciparum 3D7, 3D7
T2 sequence (O96935 whole entry): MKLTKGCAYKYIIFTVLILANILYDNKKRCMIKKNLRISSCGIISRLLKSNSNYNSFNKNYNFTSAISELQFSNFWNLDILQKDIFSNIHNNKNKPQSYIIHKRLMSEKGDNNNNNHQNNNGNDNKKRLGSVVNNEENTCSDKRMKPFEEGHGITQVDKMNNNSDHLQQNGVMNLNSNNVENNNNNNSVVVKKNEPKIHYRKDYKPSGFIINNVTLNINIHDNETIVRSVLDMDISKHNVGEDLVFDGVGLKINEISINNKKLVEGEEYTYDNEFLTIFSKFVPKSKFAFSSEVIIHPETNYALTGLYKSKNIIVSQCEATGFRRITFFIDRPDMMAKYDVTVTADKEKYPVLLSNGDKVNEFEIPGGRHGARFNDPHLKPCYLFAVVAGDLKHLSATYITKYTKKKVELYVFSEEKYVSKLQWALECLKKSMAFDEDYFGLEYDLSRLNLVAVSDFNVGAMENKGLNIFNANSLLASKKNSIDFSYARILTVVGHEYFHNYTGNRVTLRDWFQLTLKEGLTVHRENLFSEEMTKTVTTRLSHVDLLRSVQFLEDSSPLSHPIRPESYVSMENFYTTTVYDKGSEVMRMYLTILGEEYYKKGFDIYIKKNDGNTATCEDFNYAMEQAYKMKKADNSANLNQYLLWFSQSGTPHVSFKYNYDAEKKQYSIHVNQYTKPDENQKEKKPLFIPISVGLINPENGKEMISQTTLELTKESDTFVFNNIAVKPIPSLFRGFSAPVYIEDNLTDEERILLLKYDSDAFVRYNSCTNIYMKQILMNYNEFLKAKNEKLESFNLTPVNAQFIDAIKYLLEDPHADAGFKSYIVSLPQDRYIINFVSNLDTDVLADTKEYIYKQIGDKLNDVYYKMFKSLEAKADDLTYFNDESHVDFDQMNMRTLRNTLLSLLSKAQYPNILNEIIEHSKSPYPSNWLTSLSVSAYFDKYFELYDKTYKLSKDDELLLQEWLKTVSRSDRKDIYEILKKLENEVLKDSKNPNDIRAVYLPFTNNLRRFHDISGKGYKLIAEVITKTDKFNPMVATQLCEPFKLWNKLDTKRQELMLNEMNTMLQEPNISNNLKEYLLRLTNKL

[3] = target: T1, Runt-related transcription factor 1/Core-binding factor subunit beta; assay: Runt domain/CBFb-SMMHC interaction disruptors – biochemical, TR-FRET (AID 1438); assay type: protein assay
[4] = target: Intestinal-type alkaline phosphatase (Homo sapiens, UniProt P09923); assay: human intestinal alkaline phosphatase activators, dose response, biochemical, luminescence, uHTS hits (AID 463120); assay type: functional
[5] = target: T3, High affinity choline transporter 1 (Homo sapiens, UniProt Q9GZV3); assay: human choline transporter blockers, potency – cell-based, 5-point CRC, membrane potential dye, dose response (AID 504840); assay type: functional
T3 sequence (Q9GZV3 whole entry): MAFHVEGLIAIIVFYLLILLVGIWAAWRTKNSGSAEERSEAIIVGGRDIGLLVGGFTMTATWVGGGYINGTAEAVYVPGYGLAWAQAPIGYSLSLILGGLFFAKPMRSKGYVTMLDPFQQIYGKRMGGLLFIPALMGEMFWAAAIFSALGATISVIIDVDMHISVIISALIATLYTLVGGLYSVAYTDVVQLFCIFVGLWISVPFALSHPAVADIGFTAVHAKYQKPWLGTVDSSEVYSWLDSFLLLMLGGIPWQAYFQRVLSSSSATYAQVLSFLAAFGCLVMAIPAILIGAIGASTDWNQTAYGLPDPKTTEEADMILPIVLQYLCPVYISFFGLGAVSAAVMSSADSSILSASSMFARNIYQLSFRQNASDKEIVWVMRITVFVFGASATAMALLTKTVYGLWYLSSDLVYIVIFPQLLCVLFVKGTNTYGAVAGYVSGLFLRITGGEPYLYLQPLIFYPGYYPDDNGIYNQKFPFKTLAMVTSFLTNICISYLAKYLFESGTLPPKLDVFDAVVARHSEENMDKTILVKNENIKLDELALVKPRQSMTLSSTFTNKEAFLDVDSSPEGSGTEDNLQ

[6] = target: T4, Mucolipin-3 (Homo sapiens, UniProt Q8TDD5); assay: Fluorescence counterscreen assay for […] agonists: dose response cell-based high-throughput screening assay to identify agonists of the transient receptor potential channel ML3 (TRPML3). [Related pubchem assays: 1424, 1448 ]; assay type: functional
T4 sequence (Q8TDD5 whole entry): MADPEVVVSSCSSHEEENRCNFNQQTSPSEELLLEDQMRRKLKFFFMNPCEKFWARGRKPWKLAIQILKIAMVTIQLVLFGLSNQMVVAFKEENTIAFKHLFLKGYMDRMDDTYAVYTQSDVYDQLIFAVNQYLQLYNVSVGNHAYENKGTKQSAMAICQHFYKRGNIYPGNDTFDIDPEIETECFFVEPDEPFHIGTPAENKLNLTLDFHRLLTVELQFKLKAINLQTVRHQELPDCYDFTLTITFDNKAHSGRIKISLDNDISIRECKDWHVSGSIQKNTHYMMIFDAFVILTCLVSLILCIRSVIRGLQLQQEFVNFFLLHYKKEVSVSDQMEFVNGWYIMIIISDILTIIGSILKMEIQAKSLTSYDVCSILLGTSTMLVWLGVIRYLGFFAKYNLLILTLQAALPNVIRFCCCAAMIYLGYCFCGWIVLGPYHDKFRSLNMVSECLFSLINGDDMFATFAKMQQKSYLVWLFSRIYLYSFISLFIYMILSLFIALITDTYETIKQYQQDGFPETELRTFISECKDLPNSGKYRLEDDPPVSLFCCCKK

[7] = target: Ion channel NompC (Danio rerio, UniProt Q7T1G6); assay: Dose response cell-based high-throughput screening assay for agonists of the transient receptor potential channel N1 (TRPN1). [Related pubchem assays (depositor defined):AID1424, AID1448]; assay type: functional
[8] = target: T5, Bcl-2-related protein A1 (Mus musculus, UniProt Q07440); assay type: functional;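 further: confirmatory dose–response counterscreen on Bfl-1, used to check hits from a UBC13 polyubiquitin inhibitor campaign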
T5 sequence (Q07440 whole entry): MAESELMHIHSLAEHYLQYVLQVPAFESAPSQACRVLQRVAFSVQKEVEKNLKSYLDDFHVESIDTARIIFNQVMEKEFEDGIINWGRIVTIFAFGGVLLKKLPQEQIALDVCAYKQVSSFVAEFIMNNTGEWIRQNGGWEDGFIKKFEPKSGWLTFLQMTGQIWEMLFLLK

[9] = target: T6, Ubiquitin-conjugating enzyme E2 N (Homo sapiens, UniProt P61088); assay type: functional
T6 sequence (P61088 whole entry): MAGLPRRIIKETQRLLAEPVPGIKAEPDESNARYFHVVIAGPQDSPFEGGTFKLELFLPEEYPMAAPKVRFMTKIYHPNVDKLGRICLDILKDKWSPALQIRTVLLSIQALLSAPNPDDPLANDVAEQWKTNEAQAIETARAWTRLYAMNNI

[10] = target: T6, Ubiquitin-conjugating enzyme E2 N; assay type: functional; remark: listed apart in the source
[11] = target: Protein phosphatase methylesterase 1 (Homo sapiens, UniProt Q9Y570); assay: inhibition of PME-1 probe labeling – gel-based ABPP, IC50, set 1, late-stage follow-up (AID 463130); assay type: functional
[12] = target: T7, Fatty acid synthase (Homo sapiens, UniProt P49327); assay: inhibition of human FAS-TE enzyme activity – biochemical, endpoint fluorescence intensity, uHTS hits, dose response (AID 624327); assay type: functional;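 further: fluorescence from hydrolysis of an O-methyl fluorescein acyl ester substrate by the enzyme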
[13] = target: T7, Fatty acid synthase; assay: inhibition of human FAS-TE enzyme activity – biochemical, kinetic fluorescence intensity, dose response (AID 624326); assay type: functional;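 further: rate of fluorescence rise from hydrolysis of a fluorogenic O-methyl fluorescein ester substrate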
[14] = target: Coagulation factor XII (Homo sapiens, UniProt P00748); assay type: functional;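 further: activated factor XIIa alpha cleaving a fluorogenic AMC peptide substrate; inhibitor potency from loss of enzyme activity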
[15] = target: T8, Cannabinoid receptor 2 (Homo sapiens, UniProt P34972); assay: SAR analysis of agonists of the Cannabinoid Receptor 2 using an Image-Based Assay - Set 2. [Related pubchem assays (depositor defined):AID1961, AID1965]; assay type: functional
[16] = target: T9, G-protein coupled receptor 35 (Homo sapiens, UniProt Q9HC97); assay: SAR analysis of Agonists of the GPR35 Receptor using an Image-Based Assay - Set 3. [Related pubchem assays (depositor defined):AID1961, AID1965]; assay type: functional
[17] = target: T9, G-protein coupled receptor 35; assay: SAR analysis of Antagonists of the GPR35 Receptor using an Image-Based Assay - Set 4. [Related pubchem assays (depositor defined):[…]]; assay type: functional
[18] = target: T8, Cannabinoid receptor 2; assay: SAR analysis of antagonists of the Cannabinoid Receptor 2 using an Image-Based Assay - Set 2. [Related pubchem assays (depositor defined):AID1961, AID1965]; assay type: functional
[19] = target: T10, Cannabinoid receptor 1 (Homo sapiens, UniProt P21554); assay: SAR analysis of antagonists of the Cannabinoid Receptor 1 using an Image-Based Assay - Set 3. [Related pubchem assays (depositor defined):AID1961, AID1965]; assay type: functional
[20] = target: T10, Cannabinoid receptor 1; assay: SAR analysis of agonists of the Cannabinoid Receptor 1 using an Image-Based Assay - Set 3. [Related pubchem assays (depositor defined):AID1961, AID1965]; assay type: functional
[21] = target: G-protein coupled receptor 55 (Homo sapiens, UniProt Q9Y2T6); assay: SAR analysis of selective Agonists of GPR55 using an Image-Based Assay - Set 2. [Related pubchem assays (depositor defined):AID1961, AID1965]; assay type: functional
[22] = system: Streptococcus sp. 'group A'; assay: Streptococcus pyogenes SK(-)GAS viability under kanamycin – luminescence, BacTiterGlo, confirmation, counter-screen for streptokinase expression inhibitor project, dose response (AID 1900); assay type: functional, organism-based
[23] = system: Streptococcus; assay: GAS UMAA2166 growth inhibition – luminescence, BacTiterGlo, counter-screen for streptokinase expression inhibitor project, dose response (AID 1915); assay type: functional, organism-based;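 further: potency for reduction of bacterial viability or growth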
[24] = HPDE-C7 pancreatic duct cell viability loss – fluorescence, HTS (AID 430); assay type: functional, cell-based; conditions: Homo sapiens
[25] = viability loss of HPDE-C7K cells – cell-based, fluorescence, HTS, primary screen (AID 431); assay type: functional; conditions: Homo sapiens
[26] = target: Beta-galactosidase (Escherichia coli, UniProt Q8VNN2); assay: Dose response counterscreen for EBI2 assay utilizing the enzyme, b-galactosidase.; assay type: functional
[27] = target: DNA damage-inducible transcript 3 protein (Mus musculus, UniProt P35639); assay type: functional, Cricetulus griseus
[28] = target: T11, Streptokinase A (Streptococcus pyogenes serotype M1, UniProt P10520); assay: viability-normalized secreted streptokinase activity reduction – plasminogen activation absorbance, OD405, dose response (AID 1914); assay type: functional, Streptococcus pyogenes M1 GAS;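 further: secreted streptokinase activity via plasminogen activation per viability signal from cell pellet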
T11 sequence (P10520 whole entry): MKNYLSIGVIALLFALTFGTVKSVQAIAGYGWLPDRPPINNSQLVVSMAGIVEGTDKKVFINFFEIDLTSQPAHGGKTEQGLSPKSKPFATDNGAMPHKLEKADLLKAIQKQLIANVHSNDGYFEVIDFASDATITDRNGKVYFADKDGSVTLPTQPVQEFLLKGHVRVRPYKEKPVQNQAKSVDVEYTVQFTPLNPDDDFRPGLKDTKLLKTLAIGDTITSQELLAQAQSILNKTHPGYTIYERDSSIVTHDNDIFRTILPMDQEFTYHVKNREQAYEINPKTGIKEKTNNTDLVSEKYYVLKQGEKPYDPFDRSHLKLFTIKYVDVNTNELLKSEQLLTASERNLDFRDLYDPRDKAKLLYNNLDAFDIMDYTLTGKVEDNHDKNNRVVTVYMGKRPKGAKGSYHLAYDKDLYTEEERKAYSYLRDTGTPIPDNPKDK

T9 sequence (Q9HC97 whole entry): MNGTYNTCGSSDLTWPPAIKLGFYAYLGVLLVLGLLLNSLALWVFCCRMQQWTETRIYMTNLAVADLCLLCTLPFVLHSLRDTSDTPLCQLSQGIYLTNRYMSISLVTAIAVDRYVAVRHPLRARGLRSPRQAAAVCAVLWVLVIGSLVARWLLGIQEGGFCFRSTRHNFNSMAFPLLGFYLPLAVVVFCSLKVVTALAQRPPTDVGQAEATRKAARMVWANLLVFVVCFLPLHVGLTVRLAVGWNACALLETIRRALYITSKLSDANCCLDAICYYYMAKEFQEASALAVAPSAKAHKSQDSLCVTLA
T8 sequence (P34972 whole entry): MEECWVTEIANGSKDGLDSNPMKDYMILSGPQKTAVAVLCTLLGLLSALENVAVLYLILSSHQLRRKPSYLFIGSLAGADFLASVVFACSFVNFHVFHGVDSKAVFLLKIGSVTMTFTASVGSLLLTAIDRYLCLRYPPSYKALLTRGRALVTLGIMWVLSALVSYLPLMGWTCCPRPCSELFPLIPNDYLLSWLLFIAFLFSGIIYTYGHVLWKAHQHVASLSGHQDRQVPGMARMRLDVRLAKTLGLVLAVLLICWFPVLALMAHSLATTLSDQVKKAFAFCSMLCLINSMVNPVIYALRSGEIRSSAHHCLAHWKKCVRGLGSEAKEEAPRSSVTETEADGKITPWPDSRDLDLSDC
T7 sequence (P49327 whole entry): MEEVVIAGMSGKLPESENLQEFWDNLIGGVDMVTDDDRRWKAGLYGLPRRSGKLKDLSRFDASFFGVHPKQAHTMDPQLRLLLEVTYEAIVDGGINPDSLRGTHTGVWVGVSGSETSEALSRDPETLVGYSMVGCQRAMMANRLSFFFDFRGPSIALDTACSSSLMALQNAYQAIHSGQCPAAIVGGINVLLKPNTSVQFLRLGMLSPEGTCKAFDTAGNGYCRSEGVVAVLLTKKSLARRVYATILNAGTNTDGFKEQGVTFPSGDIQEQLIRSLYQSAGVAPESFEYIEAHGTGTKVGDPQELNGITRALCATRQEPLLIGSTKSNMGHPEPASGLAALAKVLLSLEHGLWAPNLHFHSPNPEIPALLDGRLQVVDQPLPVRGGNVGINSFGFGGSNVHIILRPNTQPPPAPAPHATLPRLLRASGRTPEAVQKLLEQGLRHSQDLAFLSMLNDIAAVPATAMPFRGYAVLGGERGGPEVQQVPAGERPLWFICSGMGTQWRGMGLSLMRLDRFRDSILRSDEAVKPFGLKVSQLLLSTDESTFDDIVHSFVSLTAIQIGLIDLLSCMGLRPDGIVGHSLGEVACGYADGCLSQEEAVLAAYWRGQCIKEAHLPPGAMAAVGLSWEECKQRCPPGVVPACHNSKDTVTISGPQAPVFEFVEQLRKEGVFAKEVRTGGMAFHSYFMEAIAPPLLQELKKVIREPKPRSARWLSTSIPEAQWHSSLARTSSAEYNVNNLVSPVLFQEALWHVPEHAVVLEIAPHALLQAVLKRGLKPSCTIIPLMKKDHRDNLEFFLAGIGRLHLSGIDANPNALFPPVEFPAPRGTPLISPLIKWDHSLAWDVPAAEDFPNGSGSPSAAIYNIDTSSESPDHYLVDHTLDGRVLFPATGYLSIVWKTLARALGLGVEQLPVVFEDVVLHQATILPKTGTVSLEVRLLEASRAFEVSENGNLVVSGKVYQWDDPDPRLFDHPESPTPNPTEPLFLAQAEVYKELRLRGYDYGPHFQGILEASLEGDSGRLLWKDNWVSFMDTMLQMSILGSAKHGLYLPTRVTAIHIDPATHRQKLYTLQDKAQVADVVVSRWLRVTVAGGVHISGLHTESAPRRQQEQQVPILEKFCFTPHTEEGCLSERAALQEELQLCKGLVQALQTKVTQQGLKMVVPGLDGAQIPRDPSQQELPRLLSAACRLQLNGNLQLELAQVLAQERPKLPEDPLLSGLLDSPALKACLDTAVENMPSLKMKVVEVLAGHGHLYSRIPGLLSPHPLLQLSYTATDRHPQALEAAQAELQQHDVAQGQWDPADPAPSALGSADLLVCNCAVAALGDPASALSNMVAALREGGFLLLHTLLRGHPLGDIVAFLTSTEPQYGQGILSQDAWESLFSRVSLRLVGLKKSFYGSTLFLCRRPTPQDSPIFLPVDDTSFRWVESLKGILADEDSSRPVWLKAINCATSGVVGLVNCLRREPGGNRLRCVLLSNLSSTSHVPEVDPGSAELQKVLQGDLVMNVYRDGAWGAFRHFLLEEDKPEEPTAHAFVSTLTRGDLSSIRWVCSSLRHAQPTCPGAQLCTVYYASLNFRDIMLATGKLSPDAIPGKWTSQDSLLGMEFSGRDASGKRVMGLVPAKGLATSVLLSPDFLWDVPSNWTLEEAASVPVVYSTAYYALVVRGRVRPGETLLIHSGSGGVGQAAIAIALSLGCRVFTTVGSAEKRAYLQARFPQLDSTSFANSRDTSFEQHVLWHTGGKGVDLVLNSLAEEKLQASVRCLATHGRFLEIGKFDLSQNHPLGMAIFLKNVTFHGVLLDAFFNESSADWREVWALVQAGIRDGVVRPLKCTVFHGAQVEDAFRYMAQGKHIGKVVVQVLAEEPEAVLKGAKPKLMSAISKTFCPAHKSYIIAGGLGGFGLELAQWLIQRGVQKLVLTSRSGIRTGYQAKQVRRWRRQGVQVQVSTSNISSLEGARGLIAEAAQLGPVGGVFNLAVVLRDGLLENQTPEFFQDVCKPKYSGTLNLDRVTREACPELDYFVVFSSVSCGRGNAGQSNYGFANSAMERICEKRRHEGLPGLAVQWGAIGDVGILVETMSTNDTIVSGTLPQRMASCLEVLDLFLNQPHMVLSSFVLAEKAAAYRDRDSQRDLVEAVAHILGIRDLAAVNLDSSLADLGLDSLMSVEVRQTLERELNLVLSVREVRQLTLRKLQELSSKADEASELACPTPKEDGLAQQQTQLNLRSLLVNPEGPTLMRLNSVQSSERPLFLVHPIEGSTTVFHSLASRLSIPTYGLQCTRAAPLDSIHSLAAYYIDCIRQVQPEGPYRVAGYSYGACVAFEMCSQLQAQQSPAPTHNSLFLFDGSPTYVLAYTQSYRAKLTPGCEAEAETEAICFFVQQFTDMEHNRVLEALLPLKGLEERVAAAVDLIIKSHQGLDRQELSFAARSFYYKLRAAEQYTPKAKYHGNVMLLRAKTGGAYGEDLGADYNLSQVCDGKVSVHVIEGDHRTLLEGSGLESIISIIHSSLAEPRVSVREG
T10 sequence (P21554 whole entry): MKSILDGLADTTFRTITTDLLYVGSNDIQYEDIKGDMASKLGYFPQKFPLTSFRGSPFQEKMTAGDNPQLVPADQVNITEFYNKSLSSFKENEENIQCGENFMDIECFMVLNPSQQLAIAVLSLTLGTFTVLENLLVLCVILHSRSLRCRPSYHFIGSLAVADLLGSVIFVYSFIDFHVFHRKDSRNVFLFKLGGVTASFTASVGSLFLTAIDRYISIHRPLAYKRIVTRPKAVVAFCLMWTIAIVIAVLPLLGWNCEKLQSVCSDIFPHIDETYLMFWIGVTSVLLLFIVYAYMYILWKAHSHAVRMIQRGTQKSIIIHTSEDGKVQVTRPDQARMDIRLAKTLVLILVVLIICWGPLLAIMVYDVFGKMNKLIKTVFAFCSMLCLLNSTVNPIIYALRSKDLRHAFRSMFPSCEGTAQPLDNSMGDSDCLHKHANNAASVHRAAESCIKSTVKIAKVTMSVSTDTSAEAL
T1 sequence (Q01196 whole entry, the tested form may be a part): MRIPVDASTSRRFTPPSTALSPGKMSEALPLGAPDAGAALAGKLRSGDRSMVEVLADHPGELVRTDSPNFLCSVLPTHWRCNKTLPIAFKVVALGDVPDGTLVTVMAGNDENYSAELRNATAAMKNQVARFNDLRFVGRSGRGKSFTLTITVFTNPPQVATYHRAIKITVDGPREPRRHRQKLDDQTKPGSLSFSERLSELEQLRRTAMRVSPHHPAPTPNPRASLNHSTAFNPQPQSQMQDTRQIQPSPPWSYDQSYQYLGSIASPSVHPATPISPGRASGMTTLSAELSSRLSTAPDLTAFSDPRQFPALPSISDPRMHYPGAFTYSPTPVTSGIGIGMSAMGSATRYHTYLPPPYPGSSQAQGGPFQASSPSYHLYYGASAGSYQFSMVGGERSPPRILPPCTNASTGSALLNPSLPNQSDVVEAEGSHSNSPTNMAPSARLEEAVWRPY
T1 sequence (Q13951 whole entry, the tested form may be a part): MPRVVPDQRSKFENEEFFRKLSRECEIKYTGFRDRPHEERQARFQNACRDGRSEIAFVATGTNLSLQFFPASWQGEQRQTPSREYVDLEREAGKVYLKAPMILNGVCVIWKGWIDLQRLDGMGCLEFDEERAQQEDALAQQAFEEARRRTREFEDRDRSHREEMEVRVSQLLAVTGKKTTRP
G-protein coupled receptor 55, sequence (Q9Y2T6 whole entry): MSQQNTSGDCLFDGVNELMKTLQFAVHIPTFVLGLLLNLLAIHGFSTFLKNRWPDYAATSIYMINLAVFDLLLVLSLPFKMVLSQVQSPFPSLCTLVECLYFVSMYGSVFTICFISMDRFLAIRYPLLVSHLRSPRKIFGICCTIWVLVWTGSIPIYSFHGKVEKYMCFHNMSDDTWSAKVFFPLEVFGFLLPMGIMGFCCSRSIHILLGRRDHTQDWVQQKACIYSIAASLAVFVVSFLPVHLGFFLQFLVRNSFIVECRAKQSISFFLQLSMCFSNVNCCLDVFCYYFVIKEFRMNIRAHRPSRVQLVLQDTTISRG
DNA damage-inducible transcript 3 protein, sequence (P35639 whole entry): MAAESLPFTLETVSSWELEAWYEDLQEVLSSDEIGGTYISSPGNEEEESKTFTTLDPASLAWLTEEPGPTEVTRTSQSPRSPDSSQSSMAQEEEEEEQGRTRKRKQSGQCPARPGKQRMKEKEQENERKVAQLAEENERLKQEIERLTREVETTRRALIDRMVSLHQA

In the case of `CC1=CC(c2ccc(Cl)cc2)N2NC(NS(=O)(=O)c3ccc(C)cc3)=NC2=N1` (stereo not drawn), the IC50 [1] is reported as 23.6 µM (active), the IC50 [2] is reported as 104 µM (active) and the IC50 [3] is reported as 31.5 µM (active).

In the case of `OC1CN=C2Sc3ccccc3N2C1` (stereo not drawn), the EC50 [4] is reported as > 100 µM (inactive) and the IC50 [5] is reported as 15.1 µM (active).

For `CCN1C(=O)/C(=C/c2ccc(N3CCCC3)cc2)NC1=S`, the EC50 [6] was 2.43 µM (active) and the EC50 [7] was 1.28 µM (active).

With `Cc1ccc(C(=O)NC(C)c2ccc(-n3ccnc3)cc2)cc1S(=O)(=O)N1CCOCC1` (stereo not drawn) the IC50 [8] was > 20 µM (inactive), the IC50 [9] was 11.5 µM (active) and the IC50 [10] was 17.3 µM (active).

With `COC(=O)N1C(=O)[C@](c2ccc(OC)cc2)(C(C)C)N1C(=O)OC` the IC50 [11] was 0.069 µM (active), the IC50 [12] was 3.86 µM (active) and the IC50 [13] was 2.06 µM (active).

For `COC(=O)c1ccc(C(C(=O)NC2CCCCC2)N(CCN2CCOCC2)C(=O)Cc2cccs2)cc1` (stereo not drawn), the IC50 [14] was > 50 µM (inactive).

With `Cc1cc2cc3c(cc2n2c(SCC(=O)Nc4nc(-c5ccccc5)cs4)nnc12)OCCO3` the EC50 [15] was > 32 µM (inactive), the EC50 [16] was > 32 µM (inactive) and the IC50 [17] was > 32 µM (inactive). For the same compound, the IC50 [18] was > 32 µM (inactive), the IC50 [19] was 12.7 µM (inactive) and the EC50 [20] was > 32 µM (inactive). The EC50 [21] was 4.42 µM (active).

For `Nc1c(S(=O)(=O)c2ccccc2)c2nc3ccccc3nc2n1/N=C/c1cccc(O)c1`, the EC50 [22] was 7.72 µM (active), the EC50 [23] was 75.4 µM (active) and the EC50 [24] was 2.92 µM (active). For the same compound, the EC50 [25] was 2.83 µM (active), the IC50 [26] was > 80 µM (inactive) and the “Absolute IC50 (CHOP)” value [27] was 10 µM. For the same compound, the EC50 [28] was 23.6 µM (active).
